Here are results for three molecules from the NIST ThermoML archive (doi:10.1021/acs.jced.6b00428).

Numbers after ± are expanded uncertainties.

This data set can be described thus: refractive index (Na D-line) (dimensionless). The following applies: 101.33 kPa, Liquid, Standard Abbe refractometry.

With `O` [water], the refractive index (298.15 K) is 1.3328 ± 0.0024.
Consider `CC(=O)OC(C)C` [1-methylethyl ethanoate], for which the refractive index (293.15 K) was 1.3771 ± 0.0024.
As for `CCO` [ethanol], the refractive index (298.15 K) came to 1.3616 ± 0.0024.

As usually defined, the refractive index is a measure of how strongly the sample bends light.
